{"source": "patent US20070225171A1", "about": "(priority 2001, published 2007)", "key": {"[1]": {"tested_on": "SAD2 - Cultivar KY 160 genetically engineered to express a modified version of the SAD1 synthetic gene", "assay": "Yield assay, 2,4-D sprayed on transgenic SAD2 tobacco", "type": "in vivo, Nicotiana tabacum", "settings": "for Plant Yield / Percent Leaf Yield / Corrected Leaf Yield / Corrected Plant Yield / Leaf Yield: SAD2 tobacco, isooctyl ester formulation; for Plant Yield / Corrected Leaf Yield / Corrected Plant Yield / Leaf Yield: dry matter 21 days after spraying; for Percent Leaf Yield: 21 days after spraying", "description": "(§1) The use of exogenously supplied synthetic auxins on agronomic crops to elicit direct non-herbicidal effects, with an emphasis on the potential enhancement of yield, was assessed using genetically-engineered (GE) tobacco plant lines expressing synthetic auxin metabolizing genes. Non-GE controls were used, permitting separation of the herbicidal and biological properties of the exogenously supplied synthetic auxins. Tobacco was utilized to model dry matter yield.\n(§2) The research was conducted in a single phase entailing characterization of response variables when plants were subjected to maximum (1× rate=1 pound/acre of active ingredient) and low (¼×=4 ounces/acre of active ingredient) rates of exogenously applied 2,4-dichlorophenoxyacetic acid (2,4-D). GE lines of tobacco (dark fired cultivar “KY 160”) expressing a synthetic gene for auxin metabolism (SAD1 or SAD2) were used, along with non-GE lines of the same genotype as control material. Commercial tobacco production has long utilized decapitation (“topping”) to initiate a predictable increase in leaf weight, thickness, and dry matter yield. This yield increase is dependent upon variables, such as genotype and fertility. By utilizing controls of the same genotype and a fixed level of fertility, significant yield variation responses should be attributable to the treatment (exogenous auxin herbicide application).\n(§3) The overall experimental design was comprised of three parallel completely randomized designs with spray rate and genotype as the main factors. Three replications were performed for each treatment within each experiment. Each replication was the average measurement of six plants. The tobacco lines were allowed to advance to the 6-8 leaf stage. Upon reaching this stage, the primary meristem was removed along with lower leaves so that only 4 leaves remained. Plants were then sprayed with herbicide and permitted to grow for an additional 21 days. At the end of this period, dry matter yields for both leaf and the whole plant were measured.\n(§4) Yield data recorded for tobacco were leaf dry matter, leaf number, and total dry matter. Corrected plant yield and corrected leaf yield were calculated for each replication as the leaf dry matter divided by leaf number then multiplied by the expected number of leaves (6 plants×4 leaves=24). This corrected leaf yield was then added to stem yield fraction (arrived at by subtracting actual leaf yield from total plant yield) to create a corrected total plant yield. All tobacco yield measurements were recorded in grams after a 7-day drying period in ambient air dryers.\n(§5) Seed of non-transgenic tobacco lines were germinated on MS03 (MS salts, B5 vitamins, 3% sucrose) medium. Transgenic seeds were germinated on the same medium augmented with 300 mg/L kanamycin monosulfate to allow detection of any seedlings failing to carry the transgene. Thirty days after germination, seedlings were transplanted to the greenhouse into flats holding 8 trays of 6 plants each for a total of 48 plants. Plants were permitted to grow for approximately 45 days, at which time 6-8 leaves had developed. Prior to spraying, the top of the plant retaining the uppermost two leaves was removed (decapitated) resulting in the retention of 4 fully-extended leaves for each plant.\n(§6) For spray assays and for the yield studies, spraying was performed in an Allen Machine Works Spray Cabinet. Spray rates were established as the equivalent of 16 ounces of active ingredient per acre (1× rate), 4 ounces active ingredient/acre (¼× rate), and the control (no active ingredient per acre or 0×). The herbicide used was 2,4-D, isooctyl ester formulation (3.9 pounds of active ingredient/gallon) at equivalent rates noted above. To achieve this equivalent 1× field rate, 500 microliters of herbicide were diluted into a total volume of 50 ml. The ¼× field rate was achieved by diluting 125 microliters of herbicide in a 50 ml volume. […]"}, "[2]": {"tested_on": "tobacco dark fired cultivar KY 160 (non-GE control)", "assay": "Yield assay, 2,4-D sprayed on non-transgenic tobacco", "type": "in vivo, Nicotiana tabacum", "settings": "isooctyl ester formulation; for Plant Yield / Corrected Leaf Yield / Corrected Plant Yield / Leaf Yield: dry matter 21 days after spraying; for Percent Leaf Yield: 21 days after spraying", "description": "as §1, §2, §3, §4, §5, §6"}, "[3]": {"tested_on": "Plants expressing the dioxygenase encoded by the tfdA gene", "assay": "Herbicide tolerance of plants expressing the tfdA dioxygenase", "type": "in vivo", "settings": "found by applicant", "source_text": "See, e.g., Llewellyn and Last, in Herbicide-Resistant Crops Chapter 10, pages 159-174 (Duke, ed., CRC Lewis Publishers 1996). Preferably, additional bacterial codons of the tfdA coding sequence are replaced by plant-preferred codons to obtain better expression of the encoded dioxygenase. […] See, e.g., Llewellyn and Last, in Herbicide-Resistant Crops Chapter 10, pages 159-174 (Duke, ed., CRC Lewis Publishers 1996) and U.S. Pat. Nos. 6,100,446 and 6,153,401."}, "[4]": {"settings": "2,4-D rate 1X (1 pound active ingredient/acre)"}, "[5]": {"settings": "2,4-D rate ¼X (4 ounces active ingredient/acre)"}}}
{"smiles": "O=C(O)COc1ccc(Cl)cc1Cl", "note": "[2,4-D, 2,4-dichlorophenoxyacetic acid]", "values": [{"measurement": "Plant Yield", "setting": "[1]; [4]", "result": "48.8 grams/plant/replication/treatment"}, {"measurement": "Percent Leaf Yield", "setting": "[1]; 2,4-D rate 1X", "result": 42.2, "unit": "%"}, {"measurement": "Corrected Leaf Yield", "setting": "[1]; 2,4-D rate 1X", "result": "21.6 grams/plant/replication/treatment"}, {"measurement": "Corrected Plant Yield", "setting": "[1]; 2,4-D rate 1X", "result": "51.0 grams/plant/replication/treatment"}, {"measurement": "Leaf Yield", "setting": "[1]; 2,4-D rate 1X", "result": "19.4 grams/plant/replication/treatment"}, {"measurement": "Plant Yield", "setting": "[1]; [5]", "result": "43.9 grams/plant/replication/treatment"}, {"measurement": "Percent Leaf Yield", "setting": "[1]; 2,4-D rate ¼X", "result": 42.2, "unit": "%"}, {"measurement": "Corrected Leaf Yield", "setting": "[1]; 2,4-D rate ¼X", "result": "19.1 grams/plant/replication/treatment"}, {"measurement": "Corrected Plant Yield", "setting": "[1]; 2,4-D rate ¼X", "result": "45.2 grams/plant/replication/treatment"}, {"measurement": "Leaf Yield", "setting": "[1]; 2,4-D rate ¼X", "result": "17.8 grams/plant/replication/treatment"}, {"measurement": "effect on yield", "setting": "[1]; transgenic material (SAD2) sprayed with either the ¼× or 1× rate", "result": "significant increase in yield"}, {"measurement": "Plant Yield", "setting": "[2]; [4]", "result": "27.7 grams/plant/replication/treatment"}, {"measurement": "Percent Leaf Yield", "setting": "[2]; 2,4-D rate 1X", "result": 33.2, "unit": "%"}, {"measurement": "Corrected Leaf Yield", "setting": "[2]; 2,4-D rate 1X", "result": "9.4 grams/plant/replication/treatment"}, {"measurement": "Corrected Plant Yield", "setting": "[2]; 2,4-D rate 1X", "result": "28.2 grams/plant/replication/treatment"}, {"measurement": "Leaf Yield", "setting": "[2]; 2,4-D rate 1X", "result": "9.0 grams/plant/replication/treatment"}, {"measurement": "Plant Yield", "setting": "[2]; [5]", "result": "33.1 grams/plant/replication/treatment"}, {"measurement": "Percent Leaf Yield", "setting": "[2]; 2,4-D rate ¼X", "result": 35.2, "unit": "%"}, {"measurement": "Corrected Leaf Yield", "setting": "[2]; 2,4-D rate ¼X", "result": "12.2 grams/plant/replication/treatment"}, {"measurement": "Corrected Plant Yield", "setting": "[2]; 2,4-D rate ¼X", "result": "34.3 grams/plant/replication/treatment"}, {"measurement": "Leaf Yield", "setting": "[2]; 2,4-D rate ¼X", "result": "11.0 grams/plant/replication/treatment"}, {"measurement": "tolerance of plants to the herbicide", "setting": "[3]", "result": "tolerant"}]}
